Assay results taken from PubChem BioAssay (NCI).
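All cell lines were grown in 96-well plates and treated with compound for 48 hours. GI50 = concentration required for 50% inhibition of growth. At the TGI there is no net growth.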

How the values were obtained:
Test in all cases: NCI-60 cell line screen, 48 h
[1] = system: NCI-H23 lung
[2] = system: 786-0 renal
[3] = system: DU-145 prostate
[4] = system: NCI-H522 lung
[5] = system: MDA-MB-468 breast
[6] = system: OVCAR-4 ovarian
[7] = system: UACC-62 melanoma
[8] = system: HOP-62 NSCLC
[9] = system: OVCAR-3 ovarian
[10] = system: MDA-MB-231 breast
[11] = system: EKVX NSCLC
[12] = system: SNB-19 CNS
[13] = system: UO-31 renal
[14] = system: SK-OV-3 ovarian
[15] = system: MCF7 breast
[16] = system: SF-295 CNS
[17] = system: BT-549 breast
[18] = system: LOX IMVI melanoma
[19] = system: TK-10 renal
[20] = system: SF-539 CNS
[21] = system: SN12C renal
[22] = system: IGROV1 ovarian
[23] = system: NCI/ADR-RES ovarian
[24] = system: SK-MEL-2 melanoma
[25] = system: CAKI-1 renal
[26] = system: PC-3 prostate
[27] = system: MALME-3M melanoma
[28] = system: A498 renal
[29] = system: A549 NSCLC
[30] = system: HOP-92 NSCLC
[31] = system: KM12 colon
[32] = system: RXF 393 renal
[33] = system: HCT-15 colon
[34] = system: MDA-MB-435
[35] = system: ACHN renal
[36] = system: SF-268 CNS
[37] = system: SK-MEL-28 melanoma
[38] = system: UACC-257 melanoma
[39] = system: SK-MEL-5 melanoma
[40] = system: OVCAR-5 ovarian
[41] = system: OVCAR-8 ovarian
[42] = system: COLO 205 colon
[43] = system: HCC-2998 colon
[44] = system: HL-60(TB) leukemia

Structure (SMILES): Clc1ccc2c(N/N=C/c3c[nH]c4ccc(Br)cc34)ccnc2c1
- GI50 [1]: 1110 nM
- TGI [1]: 2370 nM
- GI50 [2]: 1440 nM
- TGI [2]: 2880 nM
- GI50 [3]: 924 nM
- TGI [3]: 2140 nM
- GI50 [4]: 1790 nM
- TGI [4]: 3370 nM
- GI50 [5]: 1240 nM
- TGI [5]: 2570 nM
- GI50 [6]: 1770 nM
- TGI [6]: 3380 nM
- GI50 [7]: 1660 nM
- TGI [7]: 3050 nM
- GI50 [8]: 1580 nM
- TGI [8]: 3100 nM
- GI50 [9]: 1660 nM
- TGI [9]: 3060 nM
- GI50 [10]: 1240 nM
- TGI [10]: 2560 nM
- GI50 [11]: 1160 nM
- TGI [11]: 2400 nM
- GI50 [12]: 1540 nM
- TGI [12]: 2890 nM
- GI50 [13]: 1440 nM
- TGI [13]: 2770 nM
- GI50 [14]: 1570 nM
- TGI [14]: 3030 nM
- GI50 [15]: 952 nM
- TGI [15]: 2350 nM
- GI50 [16]: 1610 nM
- TGI [16]: 2990 nM
- GI50 [17]: 1480 nM
- TGI [17]: 2840 nM
- GI50 [18]: 173 nM
- TGI [18]: 330 nM
- GI50 [19]: 2270 nM
- TGI [19]: 3780 nM
- GI50 [20]: 1660 nM
- TGI [20]: 3050 nM
- GI50 [21]: 1750 nM
- TGI [21]: 3170 nM
- GI50 [22]: 1650 nM
- TGI [22]: 3080 nM
- GI50 [23]: 1410 nM
- TGI [23]: 2840 nM
- GI50 [24]: 1790 nM
- TGI [24]: 3250 nM
- GI50 [25]: 1460 nM
- TGI [25]: 2800 nM
- GI50 [26]: 1310 nM
- TGI [26]: 2760 nM
- GI50 [27]: 1600 nM
- TGI [27]: 3010 nM
- GI50 [28]: 1870 nM
- TGI [28]: 3380 nM
- GI50 [29]: 1580 nM
- TGI [29]: 3060 nM
- GI50 [30]: 1330 nM
- TGI [30]: 2740 nM
- GI50 [31]: 1800 nM
- TGI [31]: 3340 nM
- GI50 [32]: 1420 nM
- TGI [32]: 2790 nM
- GI50 [33]: 182 nM
- TGI [33]: 343 nM
- GI50 [34]: 1690 nM
- TGI [34]: 3100 nM
- GI50 [35]: 1660 nM
- TGI [35]: 3040 nM
- GI50 [36]: 1700 nM
- TGI [36]: 3530 nM
- GI50 [37]: 1590 nM
- TGI [37]: 2950 nM
- GI50 [38]: 1580 nM
- TGI [38]: 2970 nM
- GI50 [39]: 1500 nM
- TGI [39]: 2830 nM
- GI50 [40]: 1530 nM
- TGI [40]: 2880 nM
- GI50 [41]: 1800 nM
- TGI [41]: 3350 nM
- GI50 [42]: 358 nM
- TGI [42]: 1290 nM
- GI50 [43]: 762 nM
- TGI [43]: 2060 nM
- GI50 [44]: 469 nM
- TGI [44]: 1920 nM
